SMILES strings stand for the structures. Where “and” joins values, the source holds several entries; their conditions need not be identical. Identical values can stand only once.

From patent US9587220B2, “Method for inducing cardiac differentiation of pluripotent stem cell” (Kyoto University, priority 2012, dated 2017) come the findings set out here.

Format in all cases: cell-based, human
Test [1] relates to KY02111-induced cardiomyocytes (KY-CMs). Nature of the test: qPCR of cardiac marker and ion channel genes in KY02111-induced cardiomyocytes. The conditions noted are these: Days 15 and 30. On the procedure: Total RNA was isolated with an RNeasy Mini Kit (QIAGEN). Genomic DNA was completely digested with DNase I (Invitrogen). Total RNA (0.5 μg) was subjected to cDNA synthesis using the SuperScript III Reverse Transcriptase (Invitrogen). qRT-PCR was performed in triplicate, using SYBER GREEN PCR Master Mix on a 7500 Real Time PCR System (Applied Biosystems). The cycling conditions were as follows: 10 min at 95° C.; 40 cycles, each consisting of 15 s at 95° C.; 1 min at 60° C. Total RNA from human adult heart tissue (BioChain) was used to evaluate the expression levels of cardiac marker genes for cardiomyocytes derived from hPSCs. All values were normalized with respect to GAPDH expression level and expressed relative to the corresponding values in human adult hearts (100%).
(In general: Real-time PCR tracks product formation cycle by cycle.)

Another test deals with IMR90-1 hiPSCs. Nature of the test: Immunostaining of cardiac, pacemaker and fibroblast markers in differentiated hiPSCs. On the procedure: Confluent hESCs and hiPSCs were gently detached with CTK solution and transferred into Petri dishes (BD Biosciences) with Primate ES Cell Culture Medium (ReproCELL, Japan). Cells were held in suspension culture for 8-24 h to form aggregates. The sizes of hPSC aggregates (0.3-1 mm in diameter) are important for efficient differentiation. Following suspension culture, cell aggregates were attached to culture dishes (3-10×10^5 cells cm^−2) in cardiac differentiation medium: IMDM (Sigma), containing 20% FBS (Gibco), 1% MEM non-essential amino acid solution (Sigma), 1% Penicillin-Streptomycin (Gibco), 2 mM L-glutamine (Sigma), 0.001% 2-Mercaptoethanol (Gibco), and 0.005N NaOH, with 10 ng ml^−1 BMP4 (R&D Systems). The medium was changed to cardiac differentiation medium with 10 μM KY02111 and/or other WNT inhibitors added on Day 3 (hiPSC lines) or Day 4 (human or monkey ESC lines); XAV939 (Wako, Japan), IWP-2 (Santa Cruz Biotechnology), IWR-1 (Merck4Bioscience), IGFBP4 (R&D Systems), Dkk1 (R&D Systems) and the mixture of bFGF (R&D Systems), BMP4 (R&D Systems), VEGF (R&D Systems), DKK1 (R&D Systems), and Activin A (R&D Systems) (Non-patent literature 16). Medium was changed every 2-3 d. KY02111 and other WNT inhibitors were added until Day 9 for hiPSC lines and the monkey ESC line, or Day 14 for hESC lines. On Day 15, cardiac cell colonies on dishes were incubated with protease solution (0.1% collagenase type I, 0.25% trypsin, 1 U ml^−1 DNase I, 116 mM NaCl, 20 mM HEPES, 12.5 mM NaH2PO4, 5.6 mM glucose, 5.4 mM KCl, and 0.8 mM MgSO4, pH 7.35) for 0.5-2 h, until all cardiac colonies were detached from the bottom of the wells. The detached cardiac colonies were transferred into 15 ml tubes with fresh cardiac differentiation medium and precipitated by gravity, and the supernatant was removed by aspiration. The cardiac colonies were then transferred into Ultra-low culture dishes (Corning, 3261) or 6-well plates (Corning, YO-01835-24) in cardiac differentiation medium without both serum and NaOH. The floating cardiac colonies were maintained for more than 1 month, and the media were changed every 5 d. A differentiation method of mouse ESC (R1 line) was carried out as previously described^46, and KY02111 was added during Days 3-6. Beating colonies were counted on Day 9.
Cardiac colonies were dissociated by stirring for 1-2 h at 37° C. with the protease solution described above, cultured for 1 d on cover glasses coated with gelatin (Sigma), and fixed with 4% paraformaldehyde. After permeabilizing with Triton X, the cells were treated with 2% skim milk for 1-2 h, then incubated with primary antibodies for 2 h: NKX2.5 (rabbit polyclonal, 1:250; Abcam), αActinin (mouse monoclonal, 1:800; Sigma), cardiac TnT (mouse monoclonal, 1:100; Santa Cruz Biotechnology), Vimentin (mouse monoclonal, 1:800; Sigma V6630), and HCN4 (mouse monoclonal, 1:400; Abcam). The secondary antibodies used were Alexa546-conjugated anti-mouse IgG, Alexa488-conjugated anti-mouse IgG, and Alexa488-conjugated anti-rabbit IgG (1:1000; all from Molecular Probes, Invitrogen). Nuclei were visualized by DAPI. Images were captured under fluorescent microscopy (Olympus). The number of cTnT, αActinin, NKX2.5, HCN4, and Vimentin-positive cells were counted from three random areas, using the Metamorph imaging system (Molecular Devices). […] Cells were analyzed using a FACS CantoII flow cytometer (BD Biosciences). Data was analyzed using FACADiva software (BD Biosciences).

Test [2] concerns hESC lines (KhES-1, KhES-3), monkey ESC line (CMK6.4), mouse ESC line (R1), hiPSC lines (IMR90-1, IMR90-4, 253G1, RCHIPC0003). Nature of the test: Beating cardiac colony ratio in a variety of PSC lines treated with KY02111 (serum-containing medium). Particulars: KY02111 treatment, FIG. 1e. How it is done:
All PSC lines were maintained on mitomycin C-treated mouse embryonic fibroblasts (MEF), in Primate ES Cell Culture Medium (ReproCELL Inc., Japan), with 5 ng ml^−1 bFGF for hPSCs, and without bFGF for monkey ESCs. Human ESC lines were KhES-1, KhES-3, H1, and H9 (Non-patent literatures 1, 41). Human iPSC lines were 253G1, IMR90-1, IMR90-4 (Non-patent literatures 42, 43), and RCHIPC0003. RCHIPC0003 was established from human fibroblasts by ReproCELL. The monkey ESC line was CMK6.4 (Non-patent literatures 1, 44, 45). The hESC line was used in conformity with the Guidelines for Derivation and Utilization of Human Embryonic Stem Cells of the Ministry of Education, Culture, Sports, Science, and Technology of Japan.
Confluent hESCs and hiPSCs were gently detached with CTK solution and transferred into Petri dishes (BD Biosciences) with Primate ES Cell Culture Medium (ReproCELL, Japan). Cells were held in suspension culture for 8-24 h to form aggregates. The sizes of hPSC aggregates (0.3-1 mm in diameter) are important for efficient differentiation. […] Beating colonies were counted on Day 9.

`COc1ccc(CCC(=O)Nc2nc3ccc(Cl)cc3s2)cc1OC` [KY02111, 2-(3-(3,4-dimethoxyphenyl)propanamide)-6-chlorobenzothiazole]: the “expression of ion channel genes in KY-CMs relative to adult heart tissue” value in test [1] is “equivalent to those of adult heart tissue”. Also, the “SMA (smooth muscle marker) expression” value in the test on IMR90-1 hiPSCs (data not shown) is given as “almost undetectable”. In addition, in the test with IMR90-1 hiPSCs (serum-containing medium), the Vimentin-positive ratio was determined as 20% and the “cells positive for pacemaker marker HCN4” value is listed as 16%. Also, in the test with IMR90-1 hiPSCs (serum-containing medium, FIG. 10b), the cTnT-positive cells result is recorded as “approximately 80%”. Besides, the “decrease of ratio of Vimentin-positive cells (fibroblasts)” value in the test on IMR90-1 hiPSCs (versus DMSO) amounted to 3.3 fold. In addition, the “ratio of beating colonies per all of colonies on culture dish” value in test [2] is 60-94% and 70-90%.
